These results are taken from US20220160824A1, “COMPOUNDS FOR USE IN THE TREATMENT OF PARKINSON'S DISEASE” (UNIVERSITY OF THE WITWATERSRAND, JOHANNESBURG, priority 2018, published 2022).

For assay [1], the system named is HEK293 cells. Briefly: MTT cell viability assay, HEK293 cells treated with α-Synuclein. The class given is cell-based, human. The note with it: for cell viability after α-Synuclein treatment: 200 nM and 500 nM. The source says:
The effects of treatment of cells with a specific substance or protein on cell viability can be determined by the MTT (3-(4,5-dimethylthiazol-2-yl)-2,5-diphenyltetrazolium bromide) assay (Riss et al., 2016). MTT is a tetrazolium salt that is yellow in colour that is converted to the purple formazan crystals by the mitochondrial enzyme succinate dehydrogenase (Stockert et al., 2012). The succinate dehydrogenase is only active in viable cells and therefore only viable cells will convert MTT to formazan (Stockert et al., 2012). The MTT assay was chosen over other cell viability assays, such as the ATP assay, the resoazurin reduction assay and the protease viability marker assay, due to its high throughput screening. For this study, HEK293 cells were first seeded at 1.4×10^4 cells per well in a 24-well plate while SH-SY5Y cells were seeded at 1.8×10^4 due to a slower growth rate. The cells were then incubated overnight to allow reattachment. Cells were then treated with 200 nM and 500 nM α-Synuclein, in order to induce a PD-like state. Following treatment, the cells were incubated for 48 hours to determine the effects of α-Synuclein on cell viability […]. The known apoptosis inducer, protocatechuic acid (PCA) was used as the positive control. Following incubation, 200 μl of […] was then added to each well and incubated for 2 hours at 37° C. to allow the formation of formazan crystals. The remaining MTT was discarded and the formazan crystals were dissolved by the addition of 200 μl dimethyl sulfoxide (DMSO). The samples were then added to a 96-well plate at 100 μl in duplicates and the absorbance was read at 570 nm using an ELISA plate reader. High absorbance is indicative of a high number of viable cells.
Statistical evaluation of the data was conducted by performing the […] with a confidence interval of 95% and as a result, results were considered significant when the p-value was lower than 0.05 was considered significant (*p<0.05, **p<0.01 and ***p<0.001) (Johnston, 1970).
In general terms: Tetrazolium assays rely on reduction of a dye to a coloured formazan, in cell work by metabolically active cells.

For assay [2], the system named is SH-SY5Y cells. Briefly: MTT cell viability assay, SH-SY5Y cells treated with α-Synuclein. The class given is cell-based. The note with it: for cell viability after α-Synuclein treatment: 200 nM and 500 nM. The text has this:
The HEK293 cell line was used as it is commonly used in Parkinson's disease (PD) research (Schlachetzki et al., 2013). The cell culture media was made up from Dulbecco's Modified Eagle Medium (DMEM) (Hyclone) and Ham's F12 with a ratio of 1:1. The mixture was supplement with 1% penicillin/streptomycin (P/S) and 15% foetal bovine serum […] to create a supplemented media that will provide the cells with essential nutrients that include growth factors and P/S to prevent contamination with bacteria and fungi. The nutrient media was renewed when it was required. The cells were cultured at in an incubator, that maintains the humidity, pH, at 37° C. and 5% CO2 atmospheric composition to mimic in vivo conditions. Once the cells reached a confluency of 80%, they were passaged by washing with phosphate-buffered saline (PBS) followed by resuspension by the addition of trypsin-EDTA. Once the cells were re-suspended media was added to inactivate the trypsin and the cell suspension was diluted into a new flask. Fresh media was added to both flasks. Both transfected and non-transfected cells were harvested for further applications. […] SH-SY5Y cells were also received after transfection was confirmed. The cells were maintained in the same conditions as the HEK293 cells. The SH-SY5Y cells were used for the […] cell viability assay. LRP::FLAG overexpressing HEK293 cells in the presence of 1-Methyl-4-phenylpyridinium iodide (MPP+), a PD inducer, was also investigated. Late stage colorectal carcinoma cells (DLD-1) cells were used for certain confocal microscopy studies with parkin protein.
The effects of treatment of cells with a specific substance or protein on cell viability can be determined by the MTT (3-(4,5-dimethylthiazol-2-yl)-2,5-diphenyltetrazolium bromide) assay (Riss et al., 2016). […] The samples were then added to a 96-well plate at 100 μl in duplicates and the absorbance was read at 570 nm using an ELISA plate reader. High absorbance is indicative of a high number of viable cells. […]

The target in assay [3] is 37 kDa/67 kDa laminin receptor precursor/high affinity laminin receptor (LRP/LR) (human) (UniProt P08865). The experiment in a line: cell-based or functional assay.

Chain of parkin (O60260 whole entry): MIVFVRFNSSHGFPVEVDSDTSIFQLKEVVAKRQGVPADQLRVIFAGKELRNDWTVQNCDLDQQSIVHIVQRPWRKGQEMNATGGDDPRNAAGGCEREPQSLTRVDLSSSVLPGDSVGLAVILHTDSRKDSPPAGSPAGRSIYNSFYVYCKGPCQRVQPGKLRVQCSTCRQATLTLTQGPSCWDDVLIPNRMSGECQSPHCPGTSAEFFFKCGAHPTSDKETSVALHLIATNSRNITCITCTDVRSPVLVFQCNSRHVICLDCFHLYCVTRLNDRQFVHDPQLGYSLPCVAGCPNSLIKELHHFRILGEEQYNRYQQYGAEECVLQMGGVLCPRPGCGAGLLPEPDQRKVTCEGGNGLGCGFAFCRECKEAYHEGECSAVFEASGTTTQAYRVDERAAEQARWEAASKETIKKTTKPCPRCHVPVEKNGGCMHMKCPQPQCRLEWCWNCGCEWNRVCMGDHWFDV

On to `O=C(O)c1ccc(O)c(O)c1` [PCA, protocatechuic acid], for which the “cell viability with positive control” value in assay [1] (HEK293 transfected and non-transfected cell lines) is given as “significant decrease”; in assay [2] (SH-SY5Y transfected and non-transfected cell lines) it was “significant decrease”.
In the case of “parkin (from UniProt O60260 1-465) (enzyme)”, in assay [3], the percent of LRP colocalizing with parkin, confocal microscopy, DLD-1 cells overexpressing LRP::FLAG (total LRP stained) was 22%; the percent of LRP/LR colocalizing with parkin, confocal microscopy, DLD-1 cells is 54%; the percent of parkin colocalizing with LRP, confocal microscopy, DLD-1 cells overexpressing LRP::FLAG (total LRP stained) is 99%; the percent of parkin colocalizing with LRP/LR, confocal microscopy, DLD-1 cells came out at 59%.
With α-Synuclein, the “cell viability after α-Synuclein treatment” value in assay [1] (HEK293 non-transfected cells, 48 hours) is recorded as “decreased significantly”; in assay [1] (LRP::FLAG overexpressing and non-transfected HEK293 cells) it was “slight decrease”; in assay [2] (LRP::FLAG overexpressing and non-transfected SH-SY5Y cells), “no decrease”; in assay [2] (SH-SY5Y non-transfected cells, 48 hours) it was “no significant increase or decrease”.
